Reference: PubChem BioAssay (NCI)
Values joined by “and” are separate entries in the source; they are usually repeats but may differ in a detail not shown here. Equal values may be shown once.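 Values below derive from 48-hour exposures of cells grown in 96-well plates, with endpoints linearly interpolated between the two concentrations bracketing the appropriate inhibition level. The concentration for 50% growth inhibition is given as GI50. TGI marks complete inhibition of growth.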

test system: MOLT-4 leukemia; test: NCI tumour cell line growth inhibition, 48 h

| SMILES | GI50 [µM] | TGI [µM] |
| --- | --- | --- |
| COc1ccc(OC)c2c1[nH]c(=O)c1c3ccccc3cn21 | 0.581 | 2.3 |
| CN(C)CCNC(=O)c1cccc2ccc(-c3ccc(O)cc3)nc12 | – | 0.692 |
| CSc1nc(=O)n(CCC#N)nc1SC | – | 67.6 |
| COc1cc(-c2oc(=O)ccc2C#Cc2ccccn2)cc(OC)c1OC | 4.14 | > 100 |
| COc1cccc(C2CC(C)(O)Oc3cc4c(cc32)OCO4)c1O (stereo not drawn) | – | > 94.3 |
| CCN(CC)CCC(CNc1ccnc2cc(Cl)ccc12)c1ccc(Cl)cc1 (stereo not drawn) | 1.6 | 9.27 |
| CCOC(=O)C(C#N)C1=CC(=O)C(=O)c2ccc(OC)cc21 (stereo not drawn) | – | > 100 |
| COc1cc(OCc2cccc(-c3ccc(C(O)c4nccs4)cc3)c2C)cc(OC)c1C=O (stereo not drawn) | 1.9 | 5.88 |
| O=C(O)COc1ccc2c(=O)c3sc4c(=O)c5ccccc5c(=O)c4c3c(=O)c2c1 | 21.5 | 52.6 |
| O=C(Nc1ccc2ncccc2c1)Nc1ccc2ncccc2c1 | – | > 100 |
| CC1(C)S[C@@H]2[C@H](NC(=O)C3(N)CCCCC3)C(=O)N2[C@H]1C(=O)O | – | > 100 |
| O=C(Nc1ccc(Nc2ccncc2)cc1)c1ccc([N+](=O)[O-])cc1 | 3.3 | > 33.3 |

test system: HCC-2998 colon; test: NCI tumour cell line growth inhibition, 48 h

| SMILES | GI50 [µM] | TGI |
| --- | --- | --- |
| COc1ccc(OC)c2c1[nH]c(=O)c1c3ccccc3cn21 | 1.34 | 2.68 µM |
| CN(C)CCNC(=O)c1cccc2ccc(-c3ccc(O)cc3)nc12 | 1.87 | 17.5 µM and 14.1 µM |
| CSc1nc(=O)n(CCC#N)nc1SC | – | 31.9 µM |
| COc1cc(-c2oc(=O)ccc2C#Cc2ccccn2)cc(OC)c1OC | 0.236 | 4.6 µM |
| COc1cccc(C2CC(C)(O)Oc3cc4c(cc32)OCO4)c1O (stereo not drawn) | – | 51.2 µM |
| CCN(CC)CCC(CNc1ccnc2cc(Cl)ccc12)c1ccc(Cl)cc1 (stereo not drawn) | 0.642 | 2.03 µM |
| CCOC(=O)C(C#N)C1=CC(=O)C(=O)c2ccc(OC)cc21 (stereo not drawn) | – | 29.8 µM |
| COc1cc(OCc2cccc(-c3ccc(C(O)c4nccs4)cc3)c2C)cc(OC)c1C=O (stereo not drawn) | 2.28 | 7.08 µM |
| O=C(O)COc1ccc2c(=O)c3sc4c(=O)c5ccccc5c(=O)c4c3c(=O)c2c1 | 11.2 | 26.7 µM |
| O=C(Nc1ccc2ncccc2c1)Nc1ccc2ncccc2c1 | – | > 100 µM |
| CC1(C)S[C@@H]2[C@H](NC(=O)C3(N)CCCCC3)C(=O)N2[C@H]1C(=O)O | – | > 100 µM |
| O=C(Nc1ccc(Nc2ccncc2)cc1)c1ccc([N+](=O)[O-])cc1 | 2.77 | 12.3 µM |
| COC(=O)C[C@](O)(CCCC(C)(C)O)C(=O)O[C@@H]1C(OC)=C[C@]23CCCN2CCc2cc4c(cc2[C@H]13)OCO4 | 0.0137 | 0.246 µM and 0.0428 µM |

test system: EKVX NSCLC; test: NCI tumour cell line growth inhibition, 48 h

| SMILES | GI50 [µM] | TGI |
| --- | --- | --- |
| COc1ccc(OC)c2c1[nH]c(=O)c1c3ccccc3cn21 | 1.34 | 3.76 µM |
| CN(C)CCNC(=O)c1cccc2ccc(-c3ccc(O)cc3)nc12 | – | 26.3 µM |
| CSc1nc(=O)n(CCC#N)nc1SC | – | > 100 µM |
| COc1cc(-c2oc(=O)ccc2C#Cc2ccccn2)cc(OC)c1OC | 8.07 | > 100 µM |
| COc1cccc(C2CC(C)(O)Oc3cc4c(cc32)OCO4)c1O (stereo not drawn) | – | 99.4 µM |
| CCN(CC)CCC(CNc1ccnc2cc(Cl)ccc12)c1ccc(Cl)cc1 (stereo not drawn) | 3.85 | 18.8 µM |
| CCOC(=O)C(C#N)C1=CC(=O)C(=O)c2ccc(OC)cc21 (stereo not drawn) | – | 51.8 µM |
| COc1cc(OCc2cccc(-c3ccc(C(O)c4nccs4)cc3)c2C)cc(OC)c1C=O (stereo not drawn) | 2.02 | 6.63 µM |
| O=C(O)COc1ccc2c(=O)c3sc4c(=O)c5ccccc5c(=O)c4c3c(=O)c2c1 | 16.8 | 78.8 µM |
| O=C(Nc1ccc2ncccc2c1)Nc1ccc2ncccc2c1 | – | > 100 µM |
| CC1(C)S[C@@H]2[C@H](NC(=O)C3(N)CCCCC3)C(=O)N2[C@H]1C(=O)O | – | > 100 µM |
| O=C(Nc1ccc(Nc2ccncc2)cc1)c1ccc([N+](=O)[O-])cc1 | 11.2 | > 61.2 µM |
| COC(=O)C[C@](O)(CCCC(C)(C)O)C(=O)O[C@@H]1C(OC)=C[C@]23CCCN2CCc2cc4c(cc2[C@H]13)OCO4 | 0.0486 | 0.688 µM and 0.472 µM |

test system: MCF7 breast; test: NCI tumour cell line growth inhibition, 48 h

| SMILES | GI50 [µM] | TGI |
| --- | --- | --- |
| COc1ccc(OC)c2c1[nH]c(=O)c1c3ccccc3cn21 | 0.0727 | 1.98 µM |
| CN(C)CCNC(=O)c1cccc2ccc(-c3ccc(O)cc3)nc12 | – | 5.2 µM |
| CSc1nc(=O)n(CCC#N)nc1SC | – | 9.04 µM |
| COc1cc(-c2oc(=O)ccc2C#Cc2ccccn2)cc(OC)c1OC | 0.798 | > 100 µM |
| COc1cccc(C2CC(C)(O)Oc3cc4c(cc32)OCO4)c1O (stereo not drawn) | – | > 66.5 µM |
| CCN(CC)CCC(CNc1ccnc2cc(Cl)ccc12)c1ccc(Cl)cc1 (stereo not drawn) | 1.06 | 2.32 µM |
| CCOC(=O)C(C#N)C1=CC(=O)C(=O)c2ccc(OC)cc21 (stereo not drawn) | – | 31.4 µM |
| COc1cc(OCc2cccc(-c3ccc(C(O)c4nccs4)cc3)c2C)cc(OC)c1C=O (stereo not drawn) | 1.69 | 4.81 µM |
| O=C(O)COc1ccc2c(=O)c3sc4c(=O)c5ccccc5c(=O)c4c3c(=O)c2c1 | 5.51 | 25.8 µM |
| O=C(Nc1ccc2ncccc2c1)Nc1ccc2ncccc2c1 | – | > 100 µM |
| CC1(C)S[C@@H]2[C@H](NC(=O)C3(N)CCCCC3)C(=O)N2[C@H]1C(=O)O | – | > 100 µM |
| O=C(Nc1ccc(Nc2ccncc2)cc1)c1ccc([N+](=O)[O-])cc1 | 3.5 | 20.5 µM |
| COC(=O)C[C@](O)(CCCC(C)(C)O)C(=O)O[C@@H]1C(OC)=C[C@]23CCCN2CCc2cc4c(cc2[C@H]13)OCO4 | < 0.01 | 0.377 µM and 0.0666 µM |

test system: SK-MEL-5 melanoma; test: NCI tumour cell line growth inhibition, 48 h

| SMILES | GI50 [µM] | TGI [µM] |
| --- | --- | --- |
| COc1ccc(OC)c2c1[nH]c(=O)c1c3ccccc3cn21 | 1.53 | 2.93 |
| CN(C)CCNC(=O)c1cccc2ccc(-c3ccc(O)cc3)nc12 | – | 2.96 |
| CSc1nc(=O)n(CCC#N)nc1SC | – | 43 |
| COc1cc(-c2oc(=O)ccc2C#Cc2ccccn2)cc(OC)c1OC | 2.09 | 11.2 |
| COc1cccc(C2CC(C)(O)Oc3cc4c(cc32)OCO4)c1O (stereo not drawn) | – | > 61.3 |
| CCN(CC)CCC(CNc1ccnc2cc(Cl)ccc12)c1ccc(Cl)cc1 (stereo not drawn) | 1.11 | 2.34 |
| CCOC(=O)C(C#N)C1=CC(=O)C(=O)c2ccc(OC)cc21 (stereo not drawn) | – | 28.8 |
| COc1cc(OCc2cccc(-c3ccc(C(O)c4nccs4)cc3)c2C)cc(OC)c1C=O (stereo not drawn) | 1.11 | 2.4 |
| O=C(O)COc1ccc2c(=O)c3sc4c(=O)c5ccccc5c(=O)c4c3c(=O)c2c1 | 1.75 | 3.35 |
| O=C(Nc1ccc2ncccc2c1)Nc1ccc2ncccc2c1 | – | > 100 |
| CC1(C)S[C@@H]2[C@H](NC(=O)C3(N)CCCCC3)C(=O)N2[C@H]1C(=O)O | – | > 100 |
| O=C(Nc1ccc(Nc2ccncc2)cc1)c1ccc([N+](=O)[O-])cc1 | 4.89 | 21.4 |
| COC(=O)C[C@](O)(CCCC(C)(C)O)C(=O)O[C@@H]1C(OC)=C[C@]23CCCN2CCc2cc4c(cc2[C@H]13)OCO4 | 0.0149 | – |
